# Reference: paper PMC10759609, “A novel PDPN antagonist peptide CY12-RP2 inhibits melanoma growth via Wnt/β-catenin and modulates the immune cells” (Journal of Experimental & Clinical Cancer Research : CR, 2024)
# Peptide text beside a SMILES is read from it.
# Key:
# A875 cellular spheroids = experiment: 3D spheroid diameter, A875; assay type: cell-based; conditions: only at 200 μM, 5 days
# Method: A375 and A875 cells were collected and suspended in Matrigel (Corning) with a density of 1.0 × 10^7 cells per mL. 3D spheroids were fabricate using cell-processing system that have two pumps. One pump was loaded with Matrigel and another with fluorocarbon oil (3 M NOVEC, HFE-7000). The flow rate of Matrigel was 20 μL/min and the fluorocarbon oil rate was 30 μL/min. The 3D spheroids were incubated at 37 °C with 5% CO2 after printing. Culturing medium was DMEM medium supplemented with 10% FBS, and 100 IU of penicillin and […] streptomycin. The medium was changed every 3 days. Afterward, the 3D spheroids were harvested for drug analysis.
# Prepared melanoma cells spheroids were plated in 48-well plates. Following incubation for 3 days, the spheroids were exposed to different concentrations (0, 50, 100 and 200 μM) of CY12-RP2, and changes in spheroid diameter were detected after 5 days of treatment. Additionally, melanoma cell spheroids were treated with various concentrations of CY12-RP2 as described previously, and after 72 h, the spheroids were stained for immunofluorescence with caspase 3 primary antibody. The specific experimental procedures refer to the following immunofluorescence analysis. Additionally, we co-cultured peptide-stimulated PBMC with spheroids to determine the tumor-killing ability of activated PBMC.
# PBMC = PBMC cytokines by ELISA; assay type: cell-based, healthy donor; conditions: 50 µM, 48 h
# Method: PBMCs (Shenzhen People's Hospital. Shenzhen, China)) from a healthy donor were isolated using a density gradient centrifugation procedure. Firstly, the immune cell proportions analysis of PBMCs was measured using flow cytometry. We then investigated the effect of CY12-RP2 on the cytokines in PBMCs using ELISA assays. Briefly, PBMCs (5 × 10^5 cells/well) were cultured in 24-well plates with RPMI1640 containing 10% FBS for 24 h, and the cells were stimulated with CY12-RP2 (50 µM) for 48 h. Afterward, supernatants were collected for subsequent assays. […] The experimental results were then observed by crystal violet staining after 48 h. The levels of major inflammatory cytokines, including TNF-α, IL-1β, IL-2, TGF-β, IFN-γ, and IL-10, were measured using an ELISA kit (Shenzhen Ziker Biological Technology, Shenzen, China). Briefly, culture supernatants of cells and serum of pulmonary metastasis mouse model were respectively collected and added to an antibody pre-coated 96-well plates, and then followed up according to the manufacturer's instructions.
# [1] = test system: Wnt/β-catenin signaling pathway; experiment: Western blot, EMT and Wnt/β-catenin pathway, melanoma cells; assay type: cell-based; conditions: melanoma cells treated with peptide
# Method: Melanoma cells were cultured in a 60 mm dish with a complete medium and various peptide concentrations (0 μM, 5 μM, 25 μM). Protein was extracted after cells were cultured or treated for 48 h using protein lysis buffer, separated using a 10% or 15% Bis–Tris PAGE gel (Epizyme Biomedical Technology, Shanghai, China), and transferred onto a PVDF membrane (Thermo Fisher Scientific) according to standard techniques. The Western blots were imaged using Bio-rad Chemidoc MP and quantified using ImageJ software (NIH).
# Fig. S4: The inhibition of cells metastasis and invasion by CY12-RP2 can be […]
# (A, B) The inhibition of CY12-RP2 on the migration capacity of melanoma cell lines was reversed by SKL2001 (A). Statistical analysis was performed to determine the migrated distance (B). The power field scale bar, 100 μm. (C, D) Effect of CY12-RP2 on the invasive ability of melanoma cell lines were reversed by SKL2001 (C). […]
# (A) TUNEL analysis of apoptosis was conducted on orthotopic xenografts tumor sections using fluorescence staining. […] (B) Fluorescence staining of Ki67 was carried out on orthotopic xenograft tumor sections.
# The power field scale bar, 100 μm. (C) Serum His-CY12-RP2 levels of the orthotopic xenografts mice treated by various dosage of CY12-RP2 were measured by His-ELISA kit. […]
# kit. (E) Serum ALT, AST, TG, and γ-GT levels of the orthotopic xenografts model were measured by ELISA. […]
# A375 cells = experiment: Colony formation, A375; assay type: cell-based
# [2] = biological target: T1, PDPN recombinant proteins (Homo sapiens, UniProt Q86YL7); experiment: SPR assay, binding to immobilized PDPN; conditions: CM7 chip, 100 μM to 0.00128 μM
# T1 construct: PDPN recombinant proteins were coated on the CM7 sensor chip
# Method: SPR assay was conducted on a GE Biacore 3000 (Cytiva, USA) using a CM7 sensorchip for protein immobilization. All experimental steps were performed at a temperature of 24 °C and samples were kept at 4 °C. CY12-RP1 and CY12-RP2 peptides were diluted in the running buffer ([…] saline buffer, HBS-EP) at the final concentrations ranging from 100 μM to 0.00128 μM. The peptides were injected at a rate of 30 μL/min through immobilized PDPN for 240 s for association. All regenerations were introduced at a flow rate of 30 µL/min. SPR assay was performed in triplicate and the results were analyzed using Biacore 3000 software.
# To further investigate the potential anti-tumor effect of PDPN antagonist on melanoma, we used a Ph.D.TM-12 Phage Display Peptide Library to screen for a PDPN antagonist peptide. After four rounds of biopanning under progressively stringent selection conditions in vitro, seven clones with individual amino acid sequences were obtained (Fig. 3A). To assess the anti-tumor effects of these seven peptides on melanoma cells, the proliferation of A375 and A875 cell lines after treating with various concentration peptides were examined by CCK8 assay. […] We then performed immunofluorescence, SPR assay, and flow cytometry to identify the binding specificity of CY12-RP1 and CY12-RP2 with PDPN in melanoma cells. […]
# T1 sequence (Q86YL7 23-162): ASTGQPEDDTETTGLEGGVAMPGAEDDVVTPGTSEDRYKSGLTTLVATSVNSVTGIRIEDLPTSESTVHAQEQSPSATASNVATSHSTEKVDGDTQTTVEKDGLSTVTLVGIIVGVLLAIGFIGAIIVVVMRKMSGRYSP
smiles,measurement,setting,value
CC(C)C[C@H](NC(=O)[C@H](Cc1ccc(O)cc1)NC(=O)[C@@H](N)[C@@H](C)O)C(=O)N[C@@H](CS)C(=O)N[C@H](C(=O)N[C@@H](C)C(=O)N[C@@H](CS)C(=O)N[C@@H](CC(=O)O)C(=O)N[C@@H](Cc1ccc(O)cc1)C(=O)N[C@H](C(=O)N[C@@H](Cc1c[nH]cn1)C(=O)N[C@@H](Cc1c[nH]cn1)C(=O)O)[C@@H](C)O)[C@@H](C)O [CY12-RP2] (H-TYLCTACDYTHH-OH; N-terminus and C-terminus assumed),relative spheroid diameter,A875 cellular spheroids,only a high concentration of CY12-RP2 (200 μM) could decrease the diameter
same,IFN-γ level in PBMC supernatant,PBMC,increased
same,IL-1β level in PBMC supernatant,PBMC,increased
same,IL-10 level in PBMC supernatant,PBMC,decreased
same,TGF-β level in PBMC supernatant,PBMC,decreased
same,TNF-α level in PBMC supernatant,PBMC,increased
same,Wnt/β-catenin pathway,[1],could inhibit the Wnt/β-catenin pathway
same,colony formation,A375 cells,significantly suppress the colony formation of A375 cells in a dose-dependent manner
same,binding to PDPN (in words),[2],bound to PDPN in a dose-dependent manner
